The text below walks through data of patent EP4527379A1, “LIPIDS CONTAINING AN OLIGOGLYCEROL GROUP” (Thermosome GmbH, priority 2023, dated 2025).

Series [1] is described as follows: Solubility and chemical stability in organic solvents. Format: physicochemical. The method, then:
CLG2 is readily soluble in chloroform as a clear solution with at least 10 mg/ml.

A short description of series [2]: Indicative storage stability studies using HPLC/CAD. Type of series: physicochemical. The method, then: The batch was investigated in indicative storage stability studies using HPLC/CAD. CLG2 is stable in its powder form for at least 1 year when stored at -20°C. In contrast to NLG2, CLG2 could also be stored in organic solvents (e.g., chloroform) at temperature ranges from -20 to 2-8°C for at least 9 months.

For series [3] the following is noted: LNP formulations with the cationizable lipid (Carrasco et al. 2021); cited from earlier work.

Broadly, the pKa is the negative logarithm of the acid dissociation constant.

As to `CCCCCCCCCCCCCCCC(=O)OCC(C[N+](C)(C)CC(O)COCC(O)CO)OC(=O)CCCCCCCCCCCCCCC` (centres unmarked) [CLG2], the solubility in series [1] (chloroform, organic solvent or mixture, read-out: soluble in chloroform as a clear solution) was at least 10 mg/mL. For the same compound, the decomposition in ethanol entry in series [1] (ethanol, compared with methanol and isopropanol) is on record as “less pronounced”. Also, the “could be stored in organic solvents” value in series [2] (organic solvents (e.g., chloroform), -20 to 2-8°C) is given as “at least 9 months”. In addition, the “stable in its powder form” value in series [2] (powder, stored at -20°C) was “at least 1 year”.
As for `CCCCC/C=C\C/C=C\CCCCCCCCC(CCCCCCCC/C=C\C/C=C\CCCCC)OC(=O)CCCN(C)C` [DLin-MC3-DMA], the pKa in series [3] is 6.57.
